Values after ≈ are worked out from the molar mass of the structure shown.

Data set [1] relates to Streptococcus pneumoniae (ATCC6305). As to the kind of experiment: Microtitre plate assay, IC90 determination (SPN 6305). It is filed as cell-based. Conditions: 90% inhibitory concentration for bacterial growth, 37° C., resazurin fluorescence; for IC90: Streptococcus pneumoniae, ATCC6305, 24 h; for IC90 SPN 6305: 24 hours. On the procedure:
(§1) The bacteria used in this study were grown overnight in flasks containing 100 ml Mueller-Hinton Broth (Becton Dickinson—cat. no. 275730) in sterile de-ionized water, with shaking, at 37° C. Stocks (0.5 ml/tube) were stored at −70° C. until use. Bacteria titrations were performed in microtiter plates and colony forming units (CFUs) were determined. In general, an inoculum level of approximately 100 CFUs was used for susceptibility testing.
(§2) Flat-bottom, sterile 96-well plastic microtiter plates were filled with 180 μl of sterile deionized water, supplemented with 0.25% BSA. Subsequently, stock solutions (7.8× final test concentration) of compounds were added in 45 μl volumes in column 2 Serial five-fold dilutions (45 μl in 180 μl) were made directly in the microtiter plates from column 2 to reach column 11. Untreated control samples with (column 1) and without (column 12) inoculum were included in each microtiter plate. Depending on the bacteria type, approximately 10 to 60 CFU per well of bacteria inoculum (100 TCID50), in a volume of 100 μl in 2.8× Mueller-Hinton broth medium, was added to the rows A to H, except column 12. The same volume of broth medium without inoculum was added to column 12 in row A to H. The cultures were incubated at 37° C. for 24 hours under a normal atmosphere (incubator with open air valve and continuous ventilation). At the end of incubation, one day after inoculation, the bacterial growth was quantitated fluorometrically. Therefore resazurin (0.6 mg/ml) was added in a volume of 20 μl to all wells 3 hours after inoculation, and the plates were re-incubated overnight. A change in colour from blue to pink indicated the growth of bacteria. The fluorescence was read in a computer-controlled fluorometer (Cytofluor Biosearch) at an excitation wavelength of 530 nm and an emission wavelength of 590 nm. The % growth inhibition achieved by the compounds was calculated according to standard methods. The IC90 (expressed in μg/ml) was defined as the 90% inhibitory concentration for bacterial growth.
For orientation: Alamar Blue is a resazurin reagent that responds to reducing activity.

Data set [2] concerns Staphylococcus aureus (ATCC29213). As to the kind of experiment: Microtitre plate assay, IC90 determination (STA 29213). It is filed as cell-based. Conditions: 90% inhibitory concentration for bacterial growth, 37° C., resazurin fluorescence; for IC90: Staphylococcus aureus, ATCC29213, 24 h; for IC90 STA 29213: 24 hours. The procedure:
as §1, §2

Data set [3] deals with Streptococcus pyogens (ATCC8668). As to the kind of experiment: Microtitre plate assay, IC90 determination (SPY 8668). The note with it: 90% inhibitory concentration for bacterial growth, 37° C., resazurin fluorescence; for IC90: Streptococcus, ATCC8668, 24 h; for IC90 SPY 8668: 24 hours. It is filed as cell-based. The procedure:
as §1, §2

For data set [4], the system named is Pseudomonas aeruginosa (ATCC27853). As to the kind of experiment: Microtitre plate assay, IC90 determination (PAE 27853). It is filed as cell-based. Conditions: 90% inhibitory concentration for bacterial growth, 37° C., resazurin fluorescence; for IC90 PAE 27853: 24 hours; for IC90: Pseudomonas aeruginosa, ATCC27853, 24 h. The procedure: as §1, §2
Data set [5] relates to Enterococcus faecalis (ATCC29212). As to the kind of experiment: Microtitre plate assay, IC90 determination (EFA 29212). It is filed as cell-based. The note with it: 90% inhibitory concentration for bacterial growth, 37° C., resazurin fluorescence; for IC90: Enterococcus faecalis, ATCC29212, 24 h; for IC90 EFA 29212: 24 hours. The procedure:
as §1, §2

In data set [6] the test system is methicilline resistant Staphylococcus aureus (MRSA) (a clinical isolate from the University of Antwerp). As to the kind of experiment: Microtitre plate assay, IC90 determination (STA RMETH). It is filed as cell-based. The note with it: 90% inhibitory concentration for bacterial growth, 37° C., 24 hours, resazurin fluorescence. On the procedure: as §1, §2

On to `CNCCC(O)(CCc1ccc(F)cc1)C(c1ccccc1)c1cc2ccccc2nc1OC` (centres unmarked) [Compound 37], for which the melting point – broadly, the temperature, or range, at which the solid turns liquid – was 134 °C. Besides, the IC90 (usually the concentration needed for an effect of 90%) in data set [1] turned out to be 0.3 µg/mL (≈ 0.654 µM). In addition, it took 2.9 µg/mL (≈ 6.32 µM) to reach the 90% level in data set [2] (IC90).
The compound `CNCCC(O)(CCc1ccc(F)cc1)C(c1ccccc1)c1cc2cc(Br)ccc2nc1OC` (centres unmarked) [Compound 39] gave a melting point of 140 °C. The 90% effect level in data set [1] (IC90) was put at 0.3 µg/mL (≈ 0.558 µM). In data set [2], this compound yielded an IC90 of 1.7 µg/mL (≈ 3.16 µM).
Consider `COc1nc2ccc(Br)cc2cc1C(c1ccccc1)C(O)(CCN(C)C)Cc1cccc2ccccc12` (centres unmarked) [Compound 41], for which the melting point was found to be 112 °C. The compound further gave an IC90 in data set [1] of 2.3 µg/mL (≈ 4.04 µM). The “IC90 STA 29213” value in data set [2] came out at 57.0 µg/mL (≈ 100 µM).
For the compound `CCOCCOCCOc1nc2ccc(Br)cc2cc1C(c1ccccc1)C(O)(CCc1ccccc1)CCN(C)C` (centres unmarked) [Compound 43], the melting point came out at 94 °C. The same compound showed an IC90 in data set [1] of 2.3 µg/mL (≈ 3.62 µM). The IC90 in data set [3] was 10.1 µg/mL (≈ 15.9 µM). For the same compound, the “IC90 STA 29213” value in data set [2] was 10.1 µg/mL (≈ 15.9 µM). Moreover, the “IC90 PAE 27853” value in data set [4] turned out to be 10.1 µg/mL (≈ 15.9 µM). Moreover, the IC90 in data set [5] is 10.1 µg/mL (≈ 15.9 µM).
With `COc1nc2ccc(Br)cc2cc1C(c1ccc(C)cc1)C(O)(CCc1ccccc1)CCN(C)C` (centres unmarked) [Compound 65], the IC90 is 0.8 µg/mL (≈ 1.46 µM) in data set [1], 10.9 µg/mL (≈ 19.9 µM) in data set [6] and 1.7 µg/mL (≈ 3.1 µM) in data set [3]. In addition, in data set [2], the “IC90 STA 29213” value was determined as 3.9 µg/mL (≈ 7.12 µM). Moreover, the “IC90 PAE 27853” value in data set [4] was 1.7 µg/mL (≈ 3.1 µM). Besides, the “IC90 EFA 29212” value in data set [5] was found to be 1.7 µg/mL (≈ 3.1 µM).
With `COc1nc2ccc(Br)cc2cc1C(c1ccc(C)cc1)C(O)(CCc1ccccc1)CCN(C)C` (centres unmarked) [Compound 66], the “IC90 SPN 6305” value in data set [1] turned out to be 0.8 µg/mL (≈ 1.46 µM). For the same compound, in data set [6], the “IC90 STA RMETH” value was determined as 12.3 µg/mL (≈ 22.5 µM). In data set [3], the “IC90 SPY 8668” value is 1.7 µg/mL (≈ 3.1 µM). In addition, the “IC90 STA 29213” value in data set [2] worked out at 1.7 µg/mL (≈ 3.1 µM). Moreover, the “IC90 PAE 27853” value in data set [4] stood at 43.5 µg/mL (≈ 79.4 µM). In addition, in data set [5], the “IC90 EFA 29212” value was 9.7 µg/mL (≈ 17.7 µM).
`COc1nc2ccc(Br)cc2cc1C(c1cccc(Cl)c1)C(O)(CCc1ccc(F)cc1)CCN(C)C` (centres unmarked) [Compound 80]: the “IC90 SPN 6305” value in data set [1] stood at 1.9 µg/mL (≈ 3.24 µM). Also, in data set [3], the “IC90 SPY 8668” value amounted to 3.3 µg/mL (≈ 5.63 µM). The “IC90 STA 29213” value in data set [2] amounted to 9.3 µg/mL (≈ 15.9 µM). The “IC90 PAE 27853” value in data set [4] was found to be 1.9 µg/mL (≈ 3.24 µM). The “IC90 EFA 29212” value in data set [5] was found to be 8.3 µg/mL (≈ 14.2 µM).
Take `COc1nc2ccc(Br)cc2cc1C(c1cccc(Cl)c1)C(O)(CCc1ccc(F)cc1)CCN(C)C` (centres unmarked) [Compound 81]: the “IC90 SPN 6305” value in data set [1] came out at 0.6 µg/mL (≈ 1.02 µM). Besides, the IC90 worked out at 1.9 µg/mL (≈ 3.24 µM) in data set [3], 1.9 µg/mL (≈ 3.24 µM) in data set [4] and 9.3 µg/mL (≈ 15.9 µM) in data set [5]. The “IC90 STA 29213” value in data set [2] was 1.9 µg/mL (≈ 3.24 µM).
As for `COc1nc2ccc(Br)cc2cc1C(c1cccc(C)c1)C(O)(CCc1ccc(F)cc1)CCN(C)C` (centres unmarked) [Compound 82], in data set [1], the “IC90 SPN 6305” value came to 2.3 µg/mL (≈ 4.07 µM). The “IC90 SPY 8668” value in data set [3] is 1.8 µg/mL (≈ 3.18 µM). The “IC90 STA 29213” value in data set [2] was found to be 1.8 µg/mL (≈ 3.18 µM). The “IC90 PAE 27853” value in data set [4] turned out to be 1.8 µg/mL (≈ 3.18 µM). In addition, the “IC90 EFA 29212” value in data set [5] was 1.8 µg/mL (≈ 3.18 µM).
Take `COc1nc2ccc(Br)cc2cc1C(c1cccc(C)c1)C(O)(CCc1ccc(F)cc1)CCN(C)C` (centres unmarked) [Compound 83]: the “IC90 SPN 6305” value in data set [1] was determined as 0.5 µg/mL (≈ 0.884 µM). For the same compound, the IC90 in data set [3] and in data set [2] was 1.8 µg/mL (≈ 3.18 µM) throughout. The “IC90 PAE 27853” value in data set [4] is 4.0 µg/mL (≈ 7.07 µM). Besides, the “IC90 EFA 29212” value in data set [5] was determined as 9.0 µg/mL (≈ 15.9 µM).
As for `COc1ccc(C(c2cc3cc(Br)ccc3nc2OC)C(O)(CCc2ccc(F)cc2)CCN(C)C)cc1` (centres unmarked) [Compound 84], the IC90 worked out at 2.1 µg/mL (≈ 3.61 µM) in data set [1]; 46.2 µg/mL (≈ 79.4 µM) in data set [3]; 4.6 µg/mL (≈ 7.91 µM) in data set [2]; 46.2 µg/mL (≈ 79.4 µM) in data set [4]; 58.2 µg/mL (≈ 100 µM) in data set [5].
For `COc1nc2ccc(Br)cc2cc1C(c1ccc(Cl)cc1)C(O)(CCc1ccc(C)cc1)CCN(C)C` (centres unmarked) [Compound 87], the “IC90 SPN 6305” value in data set [1] stood at 2.3 µg/mL (≈ 3.95 µM). Also, the IC90 in data set [3] came out at 5.2 µg/mL (≈ 8.93 µM); in data set [4] it was 9.2 µg/mL (≈ 15.8 µM); in data set [5], 11.6 µg/mL (≈ 19.9 µM). For the same compound, in data set [2], the “IC90 STA 29213” value is 9.2 µg/mL (≈ 15.8 µM).
`COc1ccccc1CCC(O)(CCN(C)C)C(c1ccc(Cl)cc1)c1cc2cc(Br)ccc2nc1OC` (centres unmarked) [Compound 88]: the IC90 in data set [1] turned out to be 0.5 µg/mL (≈ 0.836 µM); in data set [3], 1.9 µg/mL (≈ 3.18 µM); in data set [2] it was 9.5 µg/mL (≈ 15.9 µM); in data set [4] it was 2.1 µg/mL (≈ 3.51 µM); in data set [5] it was 37.7 µg/mL (≈ 63 µM).

The values above are taken from patent US20130030017A1, “QUINOLINE DERIVATIVES AS ANTIBACTERIAL AGENTS” (priority 2005, published 2013).
